Assay results published in article PMC5078040 (Oncotarget, 2016).

How the values were obtained:
[1] = target: T1, CAMK1G (Homo sapiens, UniProt Q96NX5); assay: KinomeScan; type: binding; conditions: 1uM
T1 construct: purchased DiscoveRx KINOMEscan

[2] = target: T2, TRKC (Homo sapiens, UniProt Q16288); assay: KinomeScan; type: binding; conditions: 1uM
T2 construct: purchased DiscoveRx KINOMEscan

[3] = target: T3, PIK3CA(M1043I) (Homo sapiens, UniProt P42336, M1043I); assay: KinomeScan; type: binding; conditions: 1uM
T3 construct: purchased DiscoveRx KINOMEscan
T3 sequence (P42336 whole entry M1043I): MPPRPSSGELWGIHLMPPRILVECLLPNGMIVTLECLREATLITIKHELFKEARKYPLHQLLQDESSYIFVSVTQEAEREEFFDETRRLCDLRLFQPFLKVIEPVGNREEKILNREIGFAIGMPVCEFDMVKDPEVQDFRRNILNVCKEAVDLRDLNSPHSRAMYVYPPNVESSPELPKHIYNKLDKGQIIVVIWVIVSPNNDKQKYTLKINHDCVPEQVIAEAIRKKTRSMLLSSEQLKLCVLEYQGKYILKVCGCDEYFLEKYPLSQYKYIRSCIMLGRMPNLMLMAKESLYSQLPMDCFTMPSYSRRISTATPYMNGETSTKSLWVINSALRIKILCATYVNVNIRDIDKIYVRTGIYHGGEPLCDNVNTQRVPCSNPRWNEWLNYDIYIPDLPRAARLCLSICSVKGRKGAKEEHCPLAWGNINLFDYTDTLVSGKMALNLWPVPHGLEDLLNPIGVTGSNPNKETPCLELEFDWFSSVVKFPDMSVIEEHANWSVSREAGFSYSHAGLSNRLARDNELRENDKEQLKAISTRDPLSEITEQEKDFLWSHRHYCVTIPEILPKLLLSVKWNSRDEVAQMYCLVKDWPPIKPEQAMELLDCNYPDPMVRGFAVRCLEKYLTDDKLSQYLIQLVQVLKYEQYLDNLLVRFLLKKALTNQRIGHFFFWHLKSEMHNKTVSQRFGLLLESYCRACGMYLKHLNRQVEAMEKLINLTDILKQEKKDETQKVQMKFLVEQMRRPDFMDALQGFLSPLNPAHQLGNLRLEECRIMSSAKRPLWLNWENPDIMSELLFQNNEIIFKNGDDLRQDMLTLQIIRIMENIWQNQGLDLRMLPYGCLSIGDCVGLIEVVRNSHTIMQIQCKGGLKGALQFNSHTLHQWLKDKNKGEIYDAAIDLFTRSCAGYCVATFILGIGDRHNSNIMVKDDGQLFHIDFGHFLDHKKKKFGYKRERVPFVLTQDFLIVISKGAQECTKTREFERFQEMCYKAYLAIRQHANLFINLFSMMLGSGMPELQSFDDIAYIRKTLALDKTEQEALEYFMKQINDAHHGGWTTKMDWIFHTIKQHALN

[4] = target: T4, EPHB4 (Homo sapiens, UniProt P54760); assay: KinomeScan; type: binding; conditions: 1uM
T4 construct: purchased DiscoveRx KINOMEscan
T4 sequence (P54760 16-987): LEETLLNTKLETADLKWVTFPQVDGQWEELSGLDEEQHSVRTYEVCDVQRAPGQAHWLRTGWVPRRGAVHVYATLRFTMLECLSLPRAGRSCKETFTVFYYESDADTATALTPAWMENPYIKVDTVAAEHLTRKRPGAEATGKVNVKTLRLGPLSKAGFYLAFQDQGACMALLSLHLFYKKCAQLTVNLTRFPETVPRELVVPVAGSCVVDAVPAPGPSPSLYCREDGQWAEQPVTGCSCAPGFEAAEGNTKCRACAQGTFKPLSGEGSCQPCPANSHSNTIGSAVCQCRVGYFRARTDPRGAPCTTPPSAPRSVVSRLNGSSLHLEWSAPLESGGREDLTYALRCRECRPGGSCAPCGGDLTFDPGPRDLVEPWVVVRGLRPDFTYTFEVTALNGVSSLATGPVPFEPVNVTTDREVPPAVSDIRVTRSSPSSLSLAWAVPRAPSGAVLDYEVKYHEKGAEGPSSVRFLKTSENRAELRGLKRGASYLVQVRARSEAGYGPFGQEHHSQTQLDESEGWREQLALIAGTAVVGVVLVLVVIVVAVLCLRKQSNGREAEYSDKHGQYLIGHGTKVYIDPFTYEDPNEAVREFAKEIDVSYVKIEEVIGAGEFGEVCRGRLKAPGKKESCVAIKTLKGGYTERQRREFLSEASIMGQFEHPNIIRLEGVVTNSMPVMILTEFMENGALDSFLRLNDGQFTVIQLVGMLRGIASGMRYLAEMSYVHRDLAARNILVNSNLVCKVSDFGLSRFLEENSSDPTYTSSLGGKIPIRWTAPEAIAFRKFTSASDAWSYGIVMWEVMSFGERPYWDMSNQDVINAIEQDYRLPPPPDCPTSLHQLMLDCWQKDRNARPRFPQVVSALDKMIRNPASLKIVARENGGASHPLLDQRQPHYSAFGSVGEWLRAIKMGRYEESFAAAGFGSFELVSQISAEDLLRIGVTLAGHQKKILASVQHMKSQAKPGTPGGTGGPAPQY

[5] = target: T5, FYN (Homo sapiens, UniProt P06241); assay: KinomeScan; type: binding; conditions: 1uM
T5 construct: purchased DiscoveRx KINOMEscan

[6] = target: T6, CDKL1 (Homo sapiens, UniProt Q00532); assay: KinomeScan; type: binding; conditions: 1uM
T6 construct: purchased DiscoveRx KINOMEscan

[7] = target: T7, ABL1-nonphosphorylated (Homo sapiens, UniProt P00519); assay: KinomeScan; type: binding; conditions: 1uM
T7 construct: purchased DiscoveRx KINOMEscan

[8] = target: T8, KIT(V559D,T670I) (Homo sapiens, UniProt P10721, T670I/V559D); assay: KinomeScan; type: binding; conditions: 1uM
T8 construct: purchased DiscoveRx KINOMEscan
T8 sequence (P10721 26-976 V559D/T670I): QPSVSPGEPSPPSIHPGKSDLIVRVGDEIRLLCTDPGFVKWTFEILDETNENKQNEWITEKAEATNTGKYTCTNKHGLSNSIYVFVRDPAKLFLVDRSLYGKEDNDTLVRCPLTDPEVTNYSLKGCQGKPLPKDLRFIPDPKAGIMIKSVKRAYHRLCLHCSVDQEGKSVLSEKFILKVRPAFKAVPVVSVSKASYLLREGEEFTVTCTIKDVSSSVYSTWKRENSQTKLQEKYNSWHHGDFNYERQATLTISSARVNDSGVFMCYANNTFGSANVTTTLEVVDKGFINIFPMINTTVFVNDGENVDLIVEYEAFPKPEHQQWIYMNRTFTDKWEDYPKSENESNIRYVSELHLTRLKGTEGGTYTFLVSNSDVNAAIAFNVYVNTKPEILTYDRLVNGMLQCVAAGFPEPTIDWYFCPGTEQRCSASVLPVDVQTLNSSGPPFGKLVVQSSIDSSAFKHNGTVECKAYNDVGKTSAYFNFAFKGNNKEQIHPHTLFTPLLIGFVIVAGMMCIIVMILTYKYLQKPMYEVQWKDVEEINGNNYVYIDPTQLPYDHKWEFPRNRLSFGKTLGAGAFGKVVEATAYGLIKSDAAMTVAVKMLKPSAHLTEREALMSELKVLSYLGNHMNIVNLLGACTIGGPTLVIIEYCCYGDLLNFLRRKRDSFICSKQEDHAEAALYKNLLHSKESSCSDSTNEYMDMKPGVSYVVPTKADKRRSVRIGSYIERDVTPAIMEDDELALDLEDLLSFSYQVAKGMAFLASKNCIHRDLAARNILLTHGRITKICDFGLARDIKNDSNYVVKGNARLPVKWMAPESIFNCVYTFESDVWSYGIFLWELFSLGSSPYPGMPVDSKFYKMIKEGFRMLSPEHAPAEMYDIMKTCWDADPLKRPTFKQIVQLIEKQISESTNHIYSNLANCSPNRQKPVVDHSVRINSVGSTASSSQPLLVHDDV

[9] = target: T9, EPHB6 (Homo sapiens, UniProt O15197); assay: KinomeScan; type: binding; conditions: 1uM
T9 construct: purchased DiscoveRx KINOMEscan

[10] = target: T10, BLK (Homo sapiens, UniProt P51451); assay: KinomeScan; type: binding; conditions: 1uM
T10 construct: purchased DiscoveRx KINOMEscan

[11] = target: T11, HIPK1 (Homo sapiens, UniProt Q86Z02); assay: KinomeScan; type: binding; conditions: 1uM
T11 construct: purchased DiscoveRx KINOMEscan

[12] = target: T12, SIK2 (Homo sapiens, UniProt Q9H0K1); assay: KinomeScan; type: binding; conditions: 1uM
T12 construct: purchased DiscoveRx KINOMEscan

[13] = target: T13, SBK1 (Homo sapiens, UniProt Q52WX2); assay: KinomeScan; type: binding; conditions: 1uM
T13 construct: purchased DiscoveRx KINOMEscan

[14] = target: T14, LIMK1 (Homo sapiens, UniProt P53667); assay: KinomeScan; type: binding; conditions: 1uM
T14 construct: purchased DiscoveRx KINOMEscan

[15] = target: T15, ROCK1 (Homo sapiens, UniProt Q13464); assay: KinomeScan; type: binding; conditions: 1uM
T15 construct: purchased DiscoveRx KINOMEscan

[16] = target: T16, TLK1 (Homo sapiens, UniProt Q9UKI8); assay: KinomeScan; type: binding; conditions: 1uM
T16 construct: purchased DiscoveRx KINOMEscan

[17] = target: T17, WNK1 (Homo sapiens, UniProt Q9H4A3); assay: KinomeScan; type: binding; conditions: 1uM
T17 construct: purchased DiscoveRx KINOMEscan

[18] = target: T18, PI3Kβ (Mus musculus, UniProt Q8BTI9); assay: PI3Ks isoform in cell EC50 assay (AKT phosphorylation, Western Blotting); type: cell-based; conditions: NIH-3T3, 5μM LPA, read-out: cellular EC50 PI3K Beta
T18 construct: endogenous in cells; host or cells: NIH-3T3

[19] = target: T19, CSF1R-autoinhibited (Homo sapiens, UniProt P07333); assay: KinomeScan; type: binding; conditions: 1uM
T19 construct: purchased DiscoveRx KINOMEscan

[20] = target: T20, INSRR (Homo sapiens, UniProt P14616); assay: KinomeScan; type: binding; conditions: 1uM
T20 construct: purchased DiscoveRx KINOMEscan

[21] = target: T21, CSNK1G1 (Homo sapiens, UniProt Q9HCP0); assay: KinomeScan; type: binding; conditions: 1uM
T21 construct: purchased DiscoveRx KINOMEscan

[22] = target: T22, EGFR (Homo sapiens, UniProt P00533); assay: KinomeScan; type: binding; conditions: 1uM
T22 construct: purchased DiscoveRx KINOMEscan

[23] = target: T23, ROS1 (Homo sapiens, UniProt P08922); assay: KinomeScan; type: binding; conditions: 1uM
T23 construct: purchased DiscoveRx KINOMEscan

[24] = target: T24, SGK2 (Homo sapiens, UniProt Q9HBY8); assay: KinomeScan; type: binding; conditions: 1uM
T24 construct: purchased DiscoveRx KINOMEscan
T24 sequence (Q9HBY8 whole entry): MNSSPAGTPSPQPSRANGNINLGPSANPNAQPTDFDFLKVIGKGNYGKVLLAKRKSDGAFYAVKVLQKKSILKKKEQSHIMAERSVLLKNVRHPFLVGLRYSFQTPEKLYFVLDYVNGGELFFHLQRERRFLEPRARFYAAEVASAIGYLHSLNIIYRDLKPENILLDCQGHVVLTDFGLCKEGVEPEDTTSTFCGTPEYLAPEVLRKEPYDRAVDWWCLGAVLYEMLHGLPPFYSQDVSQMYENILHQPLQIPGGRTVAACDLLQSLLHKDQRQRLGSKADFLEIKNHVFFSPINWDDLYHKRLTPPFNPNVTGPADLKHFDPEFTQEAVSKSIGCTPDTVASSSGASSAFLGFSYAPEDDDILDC

[25] = target: T25, FAK (Homo sapiens, UniProt Q05397); assay: KinomeScan; type: binding; conditions: 1uM
T25 construct: purchased DiscoveRx KINOMEscan

[26] = target: T26, IRAK4 (Homo sapiens, UniProt Q9NWZ3); assay: KinomeScan; type: binding; conditions: 1uM
T26 construct: purchased DiscoveRx KINOMEscan

[27] = target: T27, TSSK1B (Homo sapiens, UniProt Q9BXA7); assay: KinomeScan; type: binding; conditions: 1uM
T27 construct: purchased DiscoveRx KINOMEscan

[28] = target: T28, IKK-alpha (Homo sapiens, UniProt O15111); assay: KinomeScan; type: binding; conditions: 1uM
T28 construct: purchased DiscoveRx KINOMEscan

[29] = target: T29, PAK7 (Homo sapiens, UniProt Q9P286); assay: KinomeScan; type: binding; conditions: 1uM
T29 construct: purchased DiscoveRx KINOMEscan

[30] = target: T30, TAOK1 (Homo sapiens, UniProt Q7L7X3); assay: KinomeScan; type: binding; conditions: 1uM
T30 construct: purchased DiscoveRx KINOMEscan

[31] = target: T31, ERK4 (Homo sapiens, UniProt P31152); assay: KinomeScan; type: binding; conditions: 1uM
T31 construct: purchased DiscoveRx KINOMEscan

[32] = target: T32, TEC (Homo sapiens, UniProt P42680); assay: KinomeScan; type: binding; conditions: 1uM
T32 construct: purchased DiscoveRx KINOMEscan

[33] = target: T33, PIK3CA(C420R) (Homo sapiens, UniProt P42336, C420R); assay: KinomeScan; type: binding; conditions: 1uM
T33 construct: purchased DiscoveRx KINOMEscan
T33 sequence (P42336 whole entry C420R): as the sequence (P42336 whole entry M1043I) above, with C420R, I1043M counted along it

[34] = target: T34, MUSK (Homo sapiens, UniProt O15146); assay: KinomeScan; type: binding; conditions: 1uM
T34 construct: purchased DiscoveRx KINOMEscan

[35] = target: T35, PRKD3 (Homo sapiens, UniProt O94806); assay: KinomeScan; type: binding; conditions: 1uM
T35 construct: purchased DiscoveRx KINOMEscan

[36] = target: T36, PRP4 (Homo sapiens, UniProt Q13523); assay: KinomeScan; type: binding; conditions: 1uM
T36 construct: purchased DiscoveRx KINOMEscan

[37] = target: T37, SNARK (Homo sapiens, UniProt Q9H093); assay: KinomeScan; type: binding; conditions: 1uM
T37 construct: purchased DiscoveRx KINOMEscan

[38] = target: T38, MAP4K4 (Homo sapiens, UniProt O95819); assay: KinomeScan; type: binding; conditions: 1uM
T38 construct: purchased DiscoveRx KINOMEscan

[39] = target: T39, MAPKAPK5 (Homo sapiens, UniProt Q8IW41); assay: KinomeScan; type: binding; conditions: 1uM
T39 construct: purchased DiscoveRx KINOMEscan
T39 sequence (Q8IW41 whole entry): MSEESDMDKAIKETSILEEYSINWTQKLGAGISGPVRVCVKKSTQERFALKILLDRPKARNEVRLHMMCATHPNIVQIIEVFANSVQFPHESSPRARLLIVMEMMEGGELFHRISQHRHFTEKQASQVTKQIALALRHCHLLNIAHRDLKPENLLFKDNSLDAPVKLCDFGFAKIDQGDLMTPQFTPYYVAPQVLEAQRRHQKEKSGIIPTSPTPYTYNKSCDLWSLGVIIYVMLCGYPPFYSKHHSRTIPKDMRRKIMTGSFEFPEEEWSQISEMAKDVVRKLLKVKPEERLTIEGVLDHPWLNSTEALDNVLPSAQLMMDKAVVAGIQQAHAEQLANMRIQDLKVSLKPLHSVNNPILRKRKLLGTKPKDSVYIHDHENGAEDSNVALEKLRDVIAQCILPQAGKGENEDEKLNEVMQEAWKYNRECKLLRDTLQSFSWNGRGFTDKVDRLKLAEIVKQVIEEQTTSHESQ

[40] = target: T40, RET(V804M) (Homo sapiens, UniProt P07949, V804M); assay: KinomeScan; type: binding; conditions: 1uM
T40 construct: purchased DiscoveRx KINOMEscan

[41] = target: T41, DCAMKL1 (Homo sapiens, UniProt O15075); assay: KinomeScan; type: binding; conditions: 1uM
T41 construct: purchased DiscoveRx KINOMEscan
T41 sequence (O15075 whole entry): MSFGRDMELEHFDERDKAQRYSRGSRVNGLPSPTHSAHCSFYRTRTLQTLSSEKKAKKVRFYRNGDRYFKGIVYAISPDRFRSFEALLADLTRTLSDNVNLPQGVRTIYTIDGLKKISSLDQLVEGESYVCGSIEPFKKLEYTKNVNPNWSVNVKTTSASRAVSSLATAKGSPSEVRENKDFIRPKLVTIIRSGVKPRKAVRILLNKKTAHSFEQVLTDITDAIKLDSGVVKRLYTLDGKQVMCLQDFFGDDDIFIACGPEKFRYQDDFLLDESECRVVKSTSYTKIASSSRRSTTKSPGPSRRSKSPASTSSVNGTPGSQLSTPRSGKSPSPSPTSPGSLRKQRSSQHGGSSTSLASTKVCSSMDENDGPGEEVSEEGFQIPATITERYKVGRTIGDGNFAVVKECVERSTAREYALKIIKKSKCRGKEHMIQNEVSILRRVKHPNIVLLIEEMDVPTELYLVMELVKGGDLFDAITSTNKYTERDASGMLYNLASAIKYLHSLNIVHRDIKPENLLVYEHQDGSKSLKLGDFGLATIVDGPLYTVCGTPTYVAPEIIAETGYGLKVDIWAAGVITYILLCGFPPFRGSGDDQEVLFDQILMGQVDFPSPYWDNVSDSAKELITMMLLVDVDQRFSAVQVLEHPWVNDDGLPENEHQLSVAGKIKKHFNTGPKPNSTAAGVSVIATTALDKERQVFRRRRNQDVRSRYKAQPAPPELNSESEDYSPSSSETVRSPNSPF

[42] = target: T42, DRAK1 (Homo sapiens, UniProt Q9UEE5); assay: KinomeScan; type: binding; conditions: 1uM
T42 construct: purchased DiscoveRx KINOMEscan
T42 sequence (Q9UEE5 whole entry): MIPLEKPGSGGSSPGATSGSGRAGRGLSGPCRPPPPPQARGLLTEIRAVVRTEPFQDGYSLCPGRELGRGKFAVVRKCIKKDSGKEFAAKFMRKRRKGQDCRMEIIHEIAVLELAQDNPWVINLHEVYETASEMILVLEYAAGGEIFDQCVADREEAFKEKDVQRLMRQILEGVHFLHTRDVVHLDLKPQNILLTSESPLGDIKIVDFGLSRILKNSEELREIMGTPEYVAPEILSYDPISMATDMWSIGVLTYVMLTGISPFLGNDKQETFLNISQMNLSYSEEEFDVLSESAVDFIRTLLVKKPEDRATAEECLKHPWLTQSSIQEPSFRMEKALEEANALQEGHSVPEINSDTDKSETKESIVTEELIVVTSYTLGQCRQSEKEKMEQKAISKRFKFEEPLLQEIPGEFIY

[43] = target: T43, DMPK (Homo sapiens, UniProt Q09013); assay: KinomeScan; type: binding; conditions: 1uM
T43 construct: purchased DiscoveRx KINOMEscan

Cc1nc(NC(=O)[C@@H](N)C(C)C)sc1-c1cnc(Cl)c(NS(=O)(=O)c2ccccc2)c1 [PI3KD-IN-015]
KinomeScan CAMK1G [1]: 94 | KinomeScan TRKC [2]: 100 | KinomeScan PIK3CA(M1043I) [3]: 0 | KinomeScan EPHB4 [4]: 100 | KinomeScan FYN [5]: 100 | KinomeScan CDKL1 [6]: 100 | KinomeScan ABL1-nonphosphorylated [7]: 100 | KinomeScan KIT(V559D,T670I) [8]: 90 | KinomeScan EPHB6 [9]: 100 | KinomeScan BLK [10]: 97 | KinomeScan HIPK1 [11]: 96 | KinomeScan SIK2 [12]: 95 | KinomeScan SBK1 [13]: 66 | KinomeScan LIMK1 [14]: 100 | KinomeScan ROCK1 [15]: 100 | KinomeScan TLK1 [16]: 79 | KinomeScan WNK1 [17]: 100 | EC50 [18]: > 3 µM | KinomeScan CSF1R-autoinhibited [19]: 100 | KinomeScan INSRR [20]: 97 | KinomeScan CSNK1G1 [21]: 100 | KinomeScan EGFR [22]: 100 | KinomeScan ROS1 [23]: 99 | KinomeScan SGK2 [24]: 81 | KinomeScan FAK [25]: 80 | KinomeScan IRAK4 [26]: 67 | KinomeScan TSSK1B [27]: 97 | KinomeScan IKK-alpha [28]: 95 | KinomeScan PAK7 [29]: 89 | KinomeScan TAOK1 [30]: 96 | KinomeScan ERK4 [31]: 100 | KinomeScan TEC [32]: 100 | KinomeScan PIK3CA(C420R) [33]: 4.5 | KinomeScan MUSK [34]: 96 | KinomeScan PRKD3 [35]: 100 | KinomeScan PRP4 [36]: 93 | KinomeScan SNARK [37]: 97 | KinomeScan MAP4K4 [38]: 100 | KinomeScan MAPKAPK5 [39]: 82 | KinomeScan RET(V804M) [40]: 100 | KinomeScan DCAMKL1 [41]: 61 | KinomeScan DRAK1 [42]: 91 | KinomeScan DMPK [43]: 83
